Reference: PMC10359466, “Identification of a small-molecule inhibitor that selectively blocks DNA-binding by Trypanosoma brucei replication protein A1” (Nature Communications, 2023)
pEC50, pIC50: −log10 of the molar value. “And” between values parts separate entries of the source, which are not always exact repeats. Identical values can stand only once. “Also recorded” adds a separate entry of the source. Like-named read-outs stand apart in the source and are kept apart here.

Columns and labels:
HEK293 = test: AlamarBlue cell viability of HEK293 cells; type: cell-based, human; details: for pEC50: HEK293, 72 h
Description: To determine the inhibitory effect of JC-229 on human cells, HeLa and HEK293 cells were suspended in 180 μl D-MEM with 10% FBS and plated at a density of 2 × 10^4 cells/ml in triplicate. […] Percent viability was plotted using GraphPad Prism software. […] We estimated the EC50 values using the concentration of JC-229 that causes a 50% reduction of cell viability (inhibitor vs. normalized response, variable slope).

TbRPA1 DBD-AB [1] = target: T1, TbRPA1 DBD-AB (Trypanosoma brucei brucei, UniProt Q384B5); test: MST inhibition of ssDNA-binding activity, TbRPA1 DBD-AB; details: 4-PL
T1 sequence (Q384B5 entry or part of it): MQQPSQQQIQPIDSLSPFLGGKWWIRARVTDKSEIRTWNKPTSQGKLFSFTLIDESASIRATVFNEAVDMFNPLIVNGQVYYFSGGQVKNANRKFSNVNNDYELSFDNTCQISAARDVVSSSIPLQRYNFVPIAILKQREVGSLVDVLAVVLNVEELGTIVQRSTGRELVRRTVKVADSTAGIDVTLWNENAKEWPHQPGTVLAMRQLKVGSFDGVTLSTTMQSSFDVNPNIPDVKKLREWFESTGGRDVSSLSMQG
From the text: (§1) Samples were then loaded into MST capillaries.
(§2) We used one site binding to obtain a dissociation constant (Kd) and standard 4-parameter logistic curve (Sigmoidal curve) analysis to obtain the IC50 value of JC-229. We used GraphPad Prism software.

TbRPA complex = TbRPA complex (Trypanosoma brucei brucei, UniProt Q384B5); test: MST inhibition of ssDNA-binding activity, TbRPA complex; set-up: species or system T. brucei
Chain of TbRPA complex (Q38DK0 entry or part of it): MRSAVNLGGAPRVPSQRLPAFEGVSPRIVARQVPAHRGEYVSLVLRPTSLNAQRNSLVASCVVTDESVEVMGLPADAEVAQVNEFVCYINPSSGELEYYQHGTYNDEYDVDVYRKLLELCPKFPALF
Chain of TbRPA complex (Q57ZN9 entry or part of it, further chain): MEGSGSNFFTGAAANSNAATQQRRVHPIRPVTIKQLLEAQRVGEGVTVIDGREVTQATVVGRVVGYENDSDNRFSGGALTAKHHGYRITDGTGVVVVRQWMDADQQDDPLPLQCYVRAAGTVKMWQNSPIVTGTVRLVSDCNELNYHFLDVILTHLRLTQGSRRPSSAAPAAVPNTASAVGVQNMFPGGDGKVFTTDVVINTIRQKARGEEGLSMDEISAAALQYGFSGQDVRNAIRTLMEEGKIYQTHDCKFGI
Chain of TbRPA complex (Q384B5 entry or part of it): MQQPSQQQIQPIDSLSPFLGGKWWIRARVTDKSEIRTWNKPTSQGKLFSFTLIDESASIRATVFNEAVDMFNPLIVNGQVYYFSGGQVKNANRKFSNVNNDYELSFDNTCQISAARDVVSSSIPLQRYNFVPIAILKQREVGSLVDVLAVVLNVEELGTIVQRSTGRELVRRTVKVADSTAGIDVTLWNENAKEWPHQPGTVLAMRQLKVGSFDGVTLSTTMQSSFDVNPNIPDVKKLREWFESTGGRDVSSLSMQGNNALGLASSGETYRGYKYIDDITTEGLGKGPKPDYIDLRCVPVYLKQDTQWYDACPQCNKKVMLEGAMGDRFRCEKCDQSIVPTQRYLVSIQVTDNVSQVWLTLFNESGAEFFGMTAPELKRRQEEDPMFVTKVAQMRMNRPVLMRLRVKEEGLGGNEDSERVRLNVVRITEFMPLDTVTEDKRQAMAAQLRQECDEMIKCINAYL
From the text: as §1, §2

HsRPA complex [2] = target: T2, HsRPA complex (Homo sapiens, UniProt P27694); test: MST inhibition of ssDNA-binding activity, HsRPA complex; details: dT32, MST
T2 construct: made in house; host or cells: E. coli BL21
T2 sequence (P27694 whole entry): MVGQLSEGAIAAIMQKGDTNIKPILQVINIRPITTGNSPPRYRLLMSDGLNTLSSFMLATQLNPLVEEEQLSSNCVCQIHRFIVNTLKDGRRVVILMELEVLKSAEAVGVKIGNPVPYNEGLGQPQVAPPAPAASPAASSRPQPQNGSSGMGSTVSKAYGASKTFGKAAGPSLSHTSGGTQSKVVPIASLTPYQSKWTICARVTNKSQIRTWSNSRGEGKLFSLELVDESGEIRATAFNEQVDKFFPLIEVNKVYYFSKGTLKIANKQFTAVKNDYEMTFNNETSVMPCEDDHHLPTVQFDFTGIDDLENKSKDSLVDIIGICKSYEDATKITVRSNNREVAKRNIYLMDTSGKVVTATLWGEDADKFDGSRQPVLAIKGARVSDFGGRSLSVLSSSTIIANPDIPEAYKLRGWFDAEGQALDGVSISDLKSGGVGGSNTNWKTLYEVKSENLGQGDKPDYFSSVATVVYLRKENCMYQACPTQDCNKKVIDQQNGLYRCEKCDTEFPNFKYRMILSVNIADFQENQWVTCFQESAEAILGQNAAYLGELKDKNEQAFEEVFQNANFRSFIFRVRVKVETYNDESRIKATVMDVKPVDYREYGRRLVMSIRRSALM
T2 sequence (P15927 whole entry partner): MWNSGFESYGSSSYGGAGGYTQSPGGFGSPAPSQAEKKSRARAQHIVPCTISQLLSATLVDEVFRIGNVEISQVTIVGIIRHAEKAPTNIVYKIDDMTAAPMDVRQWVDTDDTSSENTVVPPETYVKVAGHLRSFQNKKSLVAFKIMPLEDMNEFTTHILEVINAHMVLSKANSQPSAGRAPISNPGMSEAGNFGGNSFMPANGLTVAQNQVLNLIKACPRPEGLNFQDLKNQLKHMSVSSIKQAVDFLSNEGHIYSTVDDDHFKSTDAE
T2 sequence (P35244 whole entry partner): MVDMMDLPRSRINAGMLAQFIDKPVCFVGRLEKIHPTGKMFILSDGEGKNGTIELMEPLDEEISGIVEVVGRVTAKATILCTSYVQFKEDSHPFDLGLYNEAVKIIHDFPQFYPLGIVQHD
From the text: as §1, §2

LmexRPA1 DBD-AB [3] = test: MST inhibition of ssDNA-binding activity, LmexRPA1 DBD-AB; set-up: species or system L. mexicana; details: dT32, MST
From the text: as §1, §2

TbRPA1 DBD-AB [4] = target: T1, TbRPA1 DBD-AB; test: EMSA inhibition of ssDNA binding, TbRPA1 DBD-AB; details: 0.625-80 µM, 5´IRDye800-dT32
HsRPA1 DBD-AB = target: T3, HsRPA1 DBD-AB (Homo sapiens, UniProt P27694); test: EMSA inhibition of ssDNA binding, HsRPA1 DBD-AB; details: highest concentration 80 µM
T3 construct: were generated by PCR-amplifying the DBD-AB domain and cloning into a pET28a vector; made in house; host or cells: E. coli BL21
T3 sequence (P27694 181-427 limits assumed): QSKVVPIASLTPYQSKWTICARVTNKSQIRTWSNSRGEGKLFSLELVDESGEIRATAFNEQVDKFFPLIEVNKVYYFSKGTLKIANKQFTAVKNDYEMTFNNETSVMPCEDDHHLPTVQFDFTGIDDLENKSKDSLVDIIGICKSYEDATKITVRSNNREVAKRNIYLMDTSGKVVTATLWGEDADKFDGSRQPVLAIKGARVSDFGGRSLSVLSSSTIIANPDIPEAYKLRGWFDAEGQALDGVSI

HsRPA complex [5] = target: T2, HsRPA complex; test: EMSA inhibition of ssDNA binding, HsRPA complex
LmexRPA1 DBD-AB [6] = test: EMSA inhibition of ssDNA binding, LmexRPA1 DBD-AB; set-up: species or system L. mexicana
Description: Increasing concentrations of recombinant protein (from 0.05 to 100 nM) were incubated with 2 nM of 5´IRDye800-labeled oligo in binding buffer (20 mM Tris, pH 7.5, 10 mM NaCl, 10 mM MgCl2, 2 mM dithiothreitol (DTT), 10% glycerol, and 0.1 mg/ml BSA) for 15 min at room temperature. About 4 μl of 6x Orange dye (Sigma) was added to the 20 μl reaction, and from that, 8 μl was separated on a non-denaturing polyacrylamide gel in 1x Tris-Borate-EDTA (TBE, Invitrogen) buffer; 4% gel for RPA complex and 8% for DBD-AB, DBD-A, or DBD-B proteins. Gels were pre-run for 1 h at a constant 100 V. Protein–ssDNA complex and unbound ssDNA were separated by running the gel at a constant 80 V at 4 °C in the dark and then visualized using LI-COR Odyssey imaging system and quantified with ImageJ software.
Samples were separated on a non-denaturing polyacrylamide gel and analyzed as described above in ssDNA-binding assay.

T. brucei cells [7] = test: Cell-cycle analysis by PI staining and flow cytometry; type: cell-based, Trypanosoma brucei; details: 10 µM
Description: About 10 million cells were collected, fixed with ice-cold 70% ethanol, and incubated with 50 μg/ml PI (Sigma-Aldrich) and 200 μg/ml RNase A (Sigma-Aldrich) in 1x PBS (Corning) at 37 °C for 30 min in the dark. Samples were analyzed by flow cytometry ([…], BD Biosciences) and FlowJo.

[8] = tested on: TbRPA1, γH2A, VSG3 protein levels in T. brucei cells; test: Immunoblotting of TbRPA1, γH2A, VSG3; type: cell-based, Trypanosoma brucei; details: 10 µM
From the text: Cells were harvested at indicated time points and suspended in Laemmli buffer (Bio-Rad) at 0.25 million cells per µl. Denatured proteins from whole cells were separated on a 4–20% gradient SDS-PAGE gel (Bio-Rad) and transferred to a nitrocellulose membrane (GE Healthcare). The membranes were probed with polyclonal antibodies against TbRPA1 (a gift from Bibo Li laboratory, ProSci Inc., ID: 21371, dilution factor 1:1,000) or γH2A (generated by ABclonal for this study, antibody ID E16070 (P), dilution factor 1:1,000), or monoclonal mouse antibodies against VSG3 (Antibody and Bioresource Core facility, MSKCC, catalog number cloneVSG224-11D6, lot EQ.11-Pur.-A, dilution factor 1:1,000) or Tubulin (Sigma, catalog number T7451, clone 6-11B-1, lot 0000149704, dilution 1:5000) in 1x PBS with 0.1% Tween 20 and 1% milk (Bio-Rad) at 4 °C overnight. The membranes were then incubated with secondary antibodies conjugated with Horseradish Peroxidase (HRP) (GE Healthcare; Rabbit HRP: catalog number NA934V, lot 17640116; Mouse HRP: catalog number NA931V, lot 17041904, dilution 1:5000) for the detection of corresponding proteins using chemiluminescence (Hyglo ELC solution from Denville Scientific, catalog number E2400; ChemiDoc Imaging System from Bio-Rad).

T. brucei cells [9] = test: Microscopic analysis of treated cells (DAPI); type: cell-based, Trypanosoma brucei; details: 10 µM
Description: For microscopic analysis, untreated or JC-229 treated cells were seeded, and fixed with 1% paraformaldehyde for 10 min at room temperature. Cells were then washed with 1x PBS and stained with DAPI (0.5 µg/ml) (Sigma). Images were captured using fluorescence microscopy (EVOS M5000, Thermo Fisher Scientific) at 40x magnification and edited with Adobe Photoshop.

T. brucei cells [10] = test: AlamarBlue cell viability / growth inhibition of T. brucei
Description: Synergy H1 microplate reader (BioTek) was used with 560/590 nm (excitation/emission) filter settings and relative fluorescence unit (RFU) values were obtained. The percentage of viable cells were calculated from the RFU values.
Trypanosome cells were seeded at 1 × 10^3 cells/ml density in 180 µl in a 96-well culture plate in triplicate. […] DMSO was used as a vehicle control at 0.0075%.

[11] = tested on: T. brucei TbRPA1 sKO cells; test: AlamarBlue cytotoxicity on TbRPA1 single knock-out (sKO) T. brucei cells
Description: To determine the viability of TbRPA1-depleted cells, we carried out the AlamarBlue assay (Thermo Fisher, catalog number A50101), an established colorimetric technique that detects metabolically active cells by measuring resorufin converted from resazurin by reducing the environment of live cells[70]. Cells from each time point were incubated with AlamarBlue dye for 4–6 h, and the percentage of live cells was determined[70]. Synergy H1 microplate reader (BioTek) was used with 560/590 nm (excitation/emission) filter settings and relative fluorescence unit (RFU) values were obtained. The percentage of viable cells were calculated from the RFU values.

Cc1ccc(C(=O)Nc2ccc(Cl)c(Cl)c2)cc1S(=O)(=O)Nc1ccc(Cl)c(Cl)c1 [JC-229, N-(3,4-dichlorophenyl)−3-(N-(3,4-dichlorophenyl)sulfamoyl)−4-methylbenzamide]
Inhibition of HEK293 at EC50 to T. brucei (HEK293; 6.5 µM): barely inhibited
pEC50 (HEK293; Homo sapiens, 0.5-50 μM, 72 h, AlamarBlue, inhibitor vs. normalized response, variable slope (Fig. 3f)): 4.74
pEC50 (HEK293; Homo sapiens, 72 h, Sigmoidal, 4-PL (Suppl. Table 1-B)): 4.99
inhibition at 50 µM (HEK293; Homo sapiens, HEK293, 50 µM, 72 h, read-out: Inhibition of HEK293 at maximum concentration): < 100%
pIC50 (TbRPA1 DBD-AB [1]; dT12, 30 nM protein): 5.55
pIC50 (TbRPA1 DBD-AB [1]; dT20, 30 nM protein): 6.06
pIC50 (TbRPA1 DBD-AB [1]; dT32, 30 nM protein): 6.64
pIC50 (TbRPA complex; dT20, 25 nM complex, MST (Supplementary Fig. 11d)): 7.47 and ~7.47
pIC50 (TbRPA complex; dT32, 25 nM complex, MST (Fig. 5d)): 7.61
pIC50 (TbRPA complex; dT32, 25 nM complex, MST (Supplementary Fig. 11d, 18g)): 7.47 and ~7.47
IC50, inhibition of HsRPA complex ssDNA binding (HsRPA complex [2]): No inhibition; also recorded: no inhibitory effect
IC50, inhibition of LmexRPA1 DBD-AB ssDNA binding (LmexRPA1 DBD-AB [3]): No inhibition; also recorded: did not inhibit
Inhibition of ssDNA binding of TbDBD-AB (EMSA) (TbRPA1 DBD-AB [4]): inhibited by JC-229 in a dose-dependent manner
Inhibition of ssDNA binding of HsDBD-AB (EMSA) (HsRPA1 DBD-AB): did not inhibit
Effect on binding of HsRPA complex to ssDNA (EMSA) (HsRPA complex [5]): no effect
Inhibition of LmexRPA1 DBD-AB ssDNA binding (EMSA) (LmexRPA1 DBD-AB [6]): did not inhibit
Sub-G1 population (T. brucei cells [7]; 32 h): ~45%
Cells that lost the bulk of their DNA (T. brucei cells [7]; 48 h): ~97%
Levels of VSG3 [8]: increased
Levels of γH2A [8]: increased
TbRPA1 protein levels [8]: did not change
Microscopic analysis of treated cells (T. brucei cells [9]): leads to cell death
Effect on parasite proliferation (T. brucei cells [10]; 50 µM, 3 days, AlamarBlue): abolished parasite proliferation
pEC50 (T. brucei cells [10]; Trypanosoma brucei, 72 h, read-out: EC50 (T. brucei growth inhibition), WT T. brucei, 72 h, AlamarBlue, standard 4-PL curve): 5.18
pEC50 (T. brucei cells [10]; Trypanosoma brucei, 72 h, read-out: EC50 (T. brucei), 0.5-50 μM, 72 h, AlamarBlue, inhibitor vs. normalized response, variable slope (Fig. 3f)): 5.18
pEC50 (T. brucei cells [10]; Trypanosoma brucei, read-out: EC50, WT (WT/WT), Fig. 8d WT strain, 72 h, [Inhibitor] vs. norm response, variable slope): 5.25
pEC50 (T. brucei cells [10]; Trypanosoma brucei, read-out: EC50, WT (WT/WT), Suppl. Table 5-B, Sigmoidal, 4-PL): 5.25
pEC50 (T. brucei cells [10]; read-out: EC50 (T. brucei growth inhibition), WT T. brucei, 72 h, AlamarBlue, standard 4-PL curve): 5.18 and 5.22
pEC50 (T. brucei cells [10]; read-out: EC50 (T. brucei), 0.5-50 μM, 72 h, AlamarBlue, inhibitor vs. normalized response, variable slope (Fig. 3f)): 5.19
pEC50 (T. brucei cells [10]; read-out: EC50, WT (WT/WT), Fig. 8d WT strain, 72 h, [Inhibitor] vs. norm response, variable slope): 5.24
pEC50 ([11]; Trypanosoma brucei, 72 h, read-out: EC50, single KO (∆/WT), 72 h, [Inhibitor] vs. norm response, variable slope): 5.31
pEC50 ([11]; Trypanosoma brucei, read-out: EC50, single KO (∆/WT), Suppl. Table 5-B, Sigmoidal, 4-PL): 5.34
pEC50 ([11]; read-out: EC50, single KO (∆/WT), 72 h, [Inhibitor] vs. norm response, variable slope): 5.30
